{"source": "patent US20110160121A1", "about": "“UNACYLATED GHRELIN AND ANALOGS AS THERAPEUTIC AGENTS FOR VASCULAR REMODELING IN DIABETIC PATIENTS AND TREATMENT OF CARDIOVASCULAR DISEASE” (ALIZE PHARMA SAS, priority 2008, published 2011)", "key": {"[1]": {"system": "CAC", "test": "Detection of ROS in CAC (DCF-DA assay, FACS)", "format": "cell-based, human", "description": "First, cell-cycle progression in response to UAG and AG was evaluated. […] To investigate whether this effect relies on inhibition of baseline ROS production, DCF-DA assay was performed. […] H2O2 was used as positive control. AGE-mediated damage signals mainly rely on ROS production (Ref. 29). […] Detection of ROS—DCF-DA (0.5 μM final concentration) was added to CAC in the indicated culture conditions. At the indicated times, the cells were subjected to FACS analysis and processed as previously described (Ref. 22). H2O2 was used as positive control."}, "[2]": {"system": "CAC", "test": "Senescence of CAC recovered from type 2 diabetic patients treated with UAG", "design": "species or system human", "conditions": "UAG administered in vivo, CAC recovered after 12 hours, FIG. 2D", "description": "After 12 hours of treatment, CAC were recovered from UAG treated and untreated patients and cultured.\n(§1) All the subjects underwent the following testing session: • UAG (3.0 μg/kg/h iv. as infusion for 12 h from 0 to 12 hours); • isotonic saline (infusion from 0 to 12 hours).\nCAC Senescence—Senescence was evaluated by acidic β-gal activity on CAC recovered from normal subjects cultured in EGM2 medium for 4 days with UAG or AGE+UAG and saline- or UAG-treated diabetic patients (Ref. 22). Briefly, CAC were washed in phosphate-buffered saline, fixed for 3 min at room temperature in 2% paraformaldehyde, washed, and incubated for 24 h at 37° C. with fresh SA-β-gal stain solution: 1 mg/ml 5-bromo-4-chloro-3-indolyl β-D-galactopyranoside (X-gal), 5 mM/liter potassium ferrocyanide, 5 mM/liter ferricyanide, 150 mM/liter NaCl, 2 mM/liter MgCl2, 0.01% sodium deoxycholate, and 0.02% Nonidet P-40. SA-β-gal-positive cells were counted manually by 3 independent investigators."}, "[3]": {"system": "CAC", "test": "CAC mobilization assay in healthy subjects and diabetic patients", "format": "in vivo, human", "conditions": "diabetic patients compared to normal subjects, treated for 6 hours; FIG. 3B", "description": "This observation led to investigate the effect of UAG treatment on BM CAC mobilization. To this end, normal subject and diabetic patients were treated with UAG or saline for 6 hours. After treatment, CAC were recovered from 4 control subjects and 4 diabetic patients, analyzed by FACS analysis and counted. […] Black lines refer to preimmune IgG used as negative control and grey lines refer to surface marker expression. Similar results were obtained when CAC from untreated diabetic patients or untreated or treated healthy subjects were analyzed (data not shown).\nas §1\nMobilization assay—CAC recovered from healthy subjects and diabetic patients, treated with UAG or saline for 6 h and 12 h, were evaluated. Total number of MNC was counted by 3 independent investigators. The percentage of CAC was calculated by comparing CAC obtained from diabetic patients and healthy donors, treated for 6 h and 12 h with UAG, AG or saline, to CAC recovered at time 0."}, "[4]": {"system": "CAC", "test": "CAC mobilization assay in diabetic mice (NOD/SCID, ob/ob)", "format": "in vivo, mouse", "conditions": "FIG. 4B", "description": "To further confirm data obtained by treating patients and healthy controls with UAG, two different mouse models of diabetes were used. NOD/SCID mice and ob/ob mice were treated for different time intervals with saline or UAG. The person skilled in the art will be familiar with the NOD/SCID mice and ob/ob mice models.\nAfter treatment, cells were recovered, assayed by FACS analysis, counted and cultured. […] Black lines refer to preimmune IgG used as negative control and grey lines refer to surface marker expression. Similar results were obtained when CAC from untreated diabetic mice as well as untreated or treated wild-type mice were analyzed (data not shown).\nDiabetic and control mice—Mice were divided in four groups. The plasma glucose and insulin determination for each group are reported. Sixteen 6 weeks old ob/ob mice (blood glucose, 600±45 mg/dL, insulin, 5.5±0.9 ng/ml); sixteen C56BL6/J wild type mice (blood glucose, 150±18.2 mg/dL, insulin, 1±0.05 ng/ml); ten 7 weeks old NOD/SCID mice (blood glucose, 164±12.9 mg/dL, insulin 1.2±.0.12 ng/ml); ten 17 weeks old NOD/SCID mice (blood glucose, 536±36.3 mg/dL, insulin 4.85±0.74 ng/ml). Animal procedures conformed to the Guide for Care and Use of […] (National Institutes of Health publication no. […], revised 1985).\nMobilization assay—Mice were treated for 12 hours with UAG or saline. CAC recovered and purified as above described, were put in culture and counted by three independent investigators. The technical ratio of CAC was calculated by comparing the numbers of CAC/μL of blood drawn from left ventricular."}, "[5]": {"system": "CAC", "test": "Matrigel-plug assay: de novo vessel formation by CAC from diabetic patients in SCID mice", "format": "in vivo, human", "description": "To evaluate whether CAC recovered from UAG-treated diabetic patients rescue their vasculogenic capability, de novo vessel formation was assayed in vivo. To this end, Matrigel plugs containing IL-3 and CSFE-labelled CAC, recovered from untreated or UAG-treated patients, were injected into SCID mice, 15 days after injection Matrigel plugs were recovered and analyzed by immunohistochemistry. […] On the contrary no functional vessels could be detected when CAC recovered from untreated patients were used (FIG. 4E, panel a (left)). To exclude the possibility that the neo-vessels derived from vasculogenic cells of host origin, immunofluorescence assay was performed using the anti-human HLA Class I and the anti-mouse MHC II antibodies.\nMatrigel-plug assay—For murine angiogenesis assay, untreated or UAG-treated CAC, obtained from type 2 diabetic patients, were counted and resuspended in DMEM (4×10^6 in 250 μL DMEM). […]\nImmunohistochemistry and immunofluorescence—For immunohistochemistry, sections from paraffin-embedded blocks of Matrigel plugs were collected onto poly-lysine-coated slides. […] The percentage of positive cells was counted in 4 non-sequential sections for each experiment at ×40 magnification. […] The number of MHC II or HLA I positive vessels was determined by counting 10 randomly selected fields in three different samples."}}, "note": "Where no end group is shown, it is not given here.", "data": [{"substance": "1-NH2Gly-Ser-Ser-Phe-Leu-Ser-Pro-Glu-His-Gln-Arg-Val-Gln-Gln-Arg-Lys-Glu-Ser-Lys-Lys-Pro-Pro-Ala-Lys-Leu-Gln-Pro-Arg-28 (H-GSSFLSPEHQRVQQRKESKKPPAKLQPR; ends and bridges not checked; listed as Homo sapiens) [UAG]", "values": [{"measurement": "level of ROS production in AGE-cultured cells", "setting": "[1]; AGE-cultured CAC, FIG. 1C, 1F", "value": "the level of ROS production in AGE-cultured cells was reduced"}, {"measurement": "intracellular ROS production in diabetic-recovered cells", "setting": "[1]; CAC isolated from type 2 diabetic patients, treated in vitro, FIG. 1D", "value": "reduced intracellular ROS production"}, {"measurement": "baseline level of ROS production", "setting": "[1]; CAC, compared to untreated cells, FIG. 1B, 1E", "value": "drastically reduces the baseline level of ROS production"}, {"measurement": "number of senescent cells", "setting": "[2]", "value": "reduced the number of senescent cells"}, {"measurement": "number of recovered cells (CAC)", "setting": "[3]", "value": "strong increase in the number of recovered cells"}, {"measurement": "number of CAC relative to untreated wild type mice", "setting": "[4]; UAG-treated ob/ob mice vs untreated wild type mice", "value": "fully restores the number of CAC to normal physiological levels"}, {"measurement": "percentage of recovered cells (CAC)", "setting": "[4]; diabetic NOD/SCID mice", "value": "increase the percentage of recovered cells"}, {"measurement": "number of circulating CAC", "setting": "[4]; ob/ob mice", "value": "increased number of circulating CAC"}, {"measurement": "de novo formation of functional vessels", "setting": "[5]; CSFE-labelled CAC from UAG-treated diabetic patients, Matrigel plugs with IL-3 in SCID mice, 15 days, FIG. 4E", "value": "formed functional vessels"}, {"measurement": "origin of vessels (human HLA Class I vs mouse MHC II)", "setting": "[5]; Matrigel plugs, immunofluorescence, FIG. 4F", "value": "majority of vessels are lined by human HLA Class I positive cells"}]}]}
